# Results from patent publication US12503438B2, “Compounds for the treatment of kinase-dependent disorders” (Exelixis, Inc., priority 2019, dated 2025).
# Legend:
# Human Mer = molecular target: T1, Human Mer (Homo sapiens, UniProt Q12866); test: Human Mer kinase assay (33P-phosphoryl transfer radiometric, KinaseProfiler); conditions: biochemical activity; 10 μM ATP
# T1 construct: Human Mer (residues R557-E882 with H628Q and R794A, 0.7 nM); purchased Eurofins Pharma Discovery Services UK Limited (KinaseProfiler service)
# T1 sequence (Q12866 557-882 limits assumed): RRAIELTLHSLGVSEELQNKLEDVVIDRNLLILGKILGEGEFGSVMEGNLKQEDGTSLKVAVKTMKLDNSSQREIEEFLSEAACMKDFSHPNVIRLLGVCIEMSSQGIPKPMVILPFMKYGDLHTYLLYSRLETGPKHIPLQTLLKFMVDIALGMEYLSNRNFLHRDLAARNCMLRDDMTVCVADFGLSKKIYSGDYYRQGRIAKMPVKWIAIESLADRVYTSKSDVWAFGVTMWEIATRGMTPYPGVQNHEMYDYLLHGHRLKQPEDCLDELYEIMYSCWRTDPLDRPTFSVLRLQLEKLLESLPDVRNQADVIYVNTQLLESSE
# Procedure: (§1) Kinase activity and compound inhibition were investigated using the ^33P-Phosphoryl transfer radiometric kinase assay, performed using the KinaseProfiler™ service of Eurofins Pharma Discovery Services UK Limited. Dose-response experiments were performed using nine compound concentrations in a 96-well microtiter plate. For each assay, all compounds were prepared to a 50× final assay concentration (50 μM) in 100% DMSO, then diluted in a half-log series, with the final top concentration at 1 μM. This working stock of the compound was added to the assay well as the first component in the reaction, followed by the remaining components as detailed in the following assay protocols below. The positive control wells (100% kinase activity) contain all components of the reaction including 2% DMSO (control for solvent effects), except the compound of interest. Blank wells contain all components of the reaction, with the reference inhibitor, staurosporine. This reference compound was used to abolish kinase activity and generated the 0% kinase activity base-line. IC50 values were calculated by nonlinear regression analysis using the sigmoidal dose-response (variable slope) curve fit on XLFit version 5.3 (ID Business Solutions).
# (§2) Human Mer (residues R557-E882 with H628Q and R794A, 0.7 nM) was incubated with 8 mM MOPS pH 7.0, 0.2 mM EDTA, 30 mM NaCl, 250 μM GGMEDIYFEFMGGKKK, 10 mM magnesium acetate and 10 μM [y-^33P-ATP]. The reaction was initiated by the addition of the Mg/ATP mix. After incubation for 40 minutes at room temperature, the reaction was stopped by the addition of phosphoric acid to a concentration of 0.5%. A reaction aliquot of 10 μL was then spotted onto a P30 filtermat and washed four times for 4 minutes in 0.425% phosphoric acid and once in methanol prior to drying and scintillation counting. Incorporated ^33P was measured using the Wallac Microbeta scintillation counter (Perkin Elmer).
# KDR = KDR (Homo sapiens, UniProt P35968); test: Human KDR kinase assay (33P-phosphoryl transfer radiometric, KinaseProfiler); design: Human KDR (residues K790-V1356, 55 nM); purchased Eurofins Pharma Discovery Services UK Limited (KinaseProfiler service); conditions: biochemical activity; 10 μM ATP
# Procedure: as §1
# as §2, with “KDR” for “Mer”, “K790-V1356, 55” for “R557-E882 with H628Q and R794A, 0.7”, “0.33 mg/mL myelin basic protein,” for “30 mM NaCl, 250 μM GGMEDIYFEFMGGKKK,”, “acetate,” for “acetate”, “[γ-^33P-ATP].” for “[y-^33P-ATP].”
# Sequence of KDR (P35968 790-1356): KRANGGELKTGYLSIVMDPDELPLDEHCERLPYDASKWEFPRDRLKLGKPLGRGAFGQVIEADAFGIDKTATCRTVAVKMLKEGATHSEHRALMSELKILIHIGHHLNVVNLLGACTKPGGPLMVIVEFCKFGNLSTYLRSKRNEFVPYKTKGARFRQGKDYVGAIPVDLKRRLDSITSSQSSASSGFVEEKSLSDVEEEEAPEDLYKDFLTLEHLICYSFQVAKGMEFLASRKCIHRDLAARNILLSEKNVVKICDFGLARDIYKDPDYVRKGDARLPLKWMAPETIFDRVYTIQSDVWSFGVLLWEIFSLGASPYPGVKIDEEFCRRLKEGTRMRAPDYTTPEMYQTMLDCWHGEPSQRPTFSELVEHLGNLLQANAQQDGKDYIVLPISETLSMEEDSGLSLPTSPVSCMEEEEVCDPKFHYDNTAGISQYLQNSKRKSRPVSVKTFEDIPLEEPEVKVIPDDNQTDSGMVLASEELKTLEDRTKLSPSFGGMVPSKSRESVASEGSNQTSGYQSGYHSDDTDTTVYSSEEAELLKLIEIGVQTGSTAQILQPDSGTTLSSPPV
IC50 (Human Mer),IC50 (KDR),SMILES
≤ 0.01 µM,0.01 to 0.1 µM,"CCn1cc(-c2ccc3c(Oc4ccc(NC(=O)C5(C(=O)Nc6ccc(F)cc6)CC5)cc4)ccnc3c2)cn1 [Compound 20, 1-N-[4-[7-(1-Ethylpyrazol-4-yl)quinolin-4-yl]oxyphenyl]-1-N′-(4-fluorophenyl)cyclopropane-1,1-dicarboxamide]"
≤ 0.01 µM,0.01 to 0.1 µM,"O=C(Nc1ccc(F)cc1)C1(C(=O)Nc2ccc(Oc3ccnc4cc(-c5cnn(C6CC6)c5)ccc34)cc2)CC1 [Compound 22, 1-N-[4-[7-(1-Cyclopropylpyrazol-4-yl)quinolin-4-yl]oxyphenyl]-1-N′-(4-fluorophenyl)cyclopropane-1,1-dicarboxamide]"
≤ 0.01 µM,0.01 to 0.1 µM,"Cn1cc(-c2ccc3c(Oc4ccc(NC(=O)C5(C(=O)Nc6ccc(F)cc6)CC5)cc4)ccnc3c2)cn1 [Compound 11, 1-N′-(4-Fluorophenyl)-1-N-[4-[7-(1-methylpyrazol-4-yl)quinolin-4-yl]oxyphenyl]cyclopropane-1,1-dicarboxamide]"
0.1 to 1 µM,0.1 to 1 µM,"CN(C(=O)C1(C(=O)Nc2ccc(Oc3ccnc4cc(-c5cnn(C)c5)ccc34)cc2)CC1)c1ccc(F)cc1 [Compound 82A, 1-N′-(4-Fluorophenyl)-1-N′-methyl-1-N-[4-[7-(1-methylpyrazol-4-yl)quinolin-4-yl]oxyphenyl]cyclopropane-1,1-dicarboxamide]"
≤ 0.01 µM,0.01 to 0.1 µM,"CS(=O)(=O)n1cc(-c2ccc3c(Oc4ccc(NC(=O)C5(C(=O)Nc6ccc(F)cc6)CC5)cc4)ccnc3c2)cn1 [Compound 79, 1-N′-(4-Fluorophenyl)-1-N-[4-[7-(1-methylsulfonylpyrazol-4-yl)quinolin-4-yl]oxyphenyl]cyclopropane-1,1-dicarboxamide]"
≤ 0.01 µM,0.01 to 0.1 µM,"CC(C)(C)n1cc(-c2ccc3c(Oc4ccc(NC(=O)C5(C(=O)Nc6ccc(F)cc6)CC5)cc4)ccnc3c2)cn1 [Compound 23, 1-N-[4-[7-(1-tert-Butylpyrazol-4-yl)quinolin-4-yl]oxyphenyl]-1-N′-(4-fluorophenyl)cyclopropane-1,1-dicarboxamide]"
≤ 0.01 µM,0.01 to 0.1 µM,"O=C(Nc1ccc(F)cc1)C1(C(=O)Nc2ccc(Oc3ccnc4cc(-c5cnn(CCF)c5)ccc34)cc2)CC1 [Compound 14, 1-N-[4-[7-[1-(2-Fluoroethyl)pyrazol-4-yl]quinolin-4-yl]oxyphenyl]-1-N′-(4-fluorophenyl)cyclopropane-1,1-dicarboxamide]"
≤ 0.01 µM,0.01 to 0.1 µM,"COCCn1cc(-c2ccc3c(Oc4ccc(NC(=O)C5(C(=O)Nc6ccc(F)cc6)CC5)cc4)ccnc3c2)cn1 [Compound 10, 1-N′-(4-Fluorophenyl)-1-N-[4-[7-[1-(2-methoxyethyl)pyrazol-4-yl]quinolin-4-yl]oxyphenyl]cyclopropane-1,1-dicarboxamide]"

# The next lines start with the compound.
SMILES,IC50 (Human Mer),IC50 (KDR)
"CC(=O)N1CCC(n2cc(-c3ccc4c(Oc5ccc(NC(=O)C6(C(=O)Nc7ccc(F)cc7)CC6)cc5)ccnc4c3)cn2)CC1 [Compound 62, 1-N-[4-[7-[1-(1-Acetylpiperidin-4-yl)pyrazol-4-yl]quinolin-4-yl]oxyphenyl]-1-N′-(4-fluorophenyl)cyclopropane-1,1-dicarboxamide]",≤ 0.01 µM,0.01 to 0.1 µM
"Cn1cnc(-c2ccc3c(Oc4ccc(NC(=O)C5(C(=O)Nc6ccc(F)cc6)CC5)cc4)ccnc3c2)c1 [Compound 69, 1-N′-(4-Fluorophenyl)-1-N-[4-[7-(1-methylimidazol-4-yl)quinolin-4-yl]oxyphenyl]cyclopropane-1,1-dicarboxamide]",≤ 0.01 µM,0.01 to 0.1 µM
"Cc1noc(C)c1-c1ccc2c(Oc3ccc(NC(=O)C4(C(=O)Nc5ccc(F)cc5)CC4)cc3)ccnc2c1 [Compound 53, 1-N-[4-[7-(3,5-Dimethyl-1,2-oxazol-4-yl)quinolin-4-yl]oxyphenyl]-1-N′-(4-fluorophenyl)cyclopropane-1,1-dicarboxamide]",0.01 to 0.1 µM,0.01 to 0.1 µM
"O=C(Nc1ccc(F)cc1)C1(C(=O)Nc2ccc(Oc3ccnc4cc(-c5cnn(C6COC6)c5)ccc34)cc2)CC1 [Compound 24, 1-N′-(4-Fluorophenyl)-1-N-[4-[7-[1-(oxetan-3-yl)pyrazol-4-yl]quinolin-4-yl]oxyphenyl]cyclopropane-1,1-dicarboxamide]",≤ 0.01 µM,0.01 to 0.1 µM
"O=C(Nc1ccc(F)cc1)C1(C(=O)Nc2ccc(Oc3ccnc4cc(-c5cnc[nH]5)ccc34)cc2)CC1 [Compound 72, 1-N′-(4-Fluorophenyl)-1-N-[4-[7-(1H-imidazol-5-yl)quinolin-4-yl]oxyphenyl]cyclopropane-1,1-dicarboxamide]",≤ 0.01 µM,0.01 to 0.1 µM
"O=C(Nc1ccc(F)cc1)C1(C(=O)Nc2ccc(Oc3ccnc4cc(-c5cnn(CCN6CCOCC6)c5)ccc34)cc2)CC1 [Compound 19, 1-N′-(4-Fluorophenyl)-1-N-[4-[7-[1-(2-morpholin-4-ylethyl)pyrazol-4-yl]quinolin-4-yl]oxyphenyl]cyclopropane-1,1-dicarboxamide]",≤ 0.01 µM,0.01 to 0.1 µM
"CN1CCC(n2cc(-c3ccc4c(Oc5ccc(NC(=O)C6(C(=O)Nc7ccc(F)cc7)CC6)cc5)ccnc4c3)cn2)CC1 [Compound 61, 1-N′-(4-Fluorophenyl)-1-N-[4-[7-[1-(1-methylpiperidin-4-yl)pyrazol-4-yl]quinolin-4-yl]oxyphenyl]cyclopropane-1,1-dicarboxamide]",≤ 0.01 µM,0.01 to 0.1 µM
"C#Cc1ccc2c(Oc3ccc(NC(=O)C4(C(=O)Nc5ccc(F)cc5)CC4)cc3)ccnc2c1 [Compound 64, 1-N-[4-(7-Ethynylquinolin-4-yl)oxyphenyl]-1-N′-(4-fluorophenyl)cyclopropane-1,1-dicarboxamide]",0.01 to 0.1 µM,0.01 to 0.1 µM
"O=C(Nc1ccc(F)cc1)C1(C(=O)Nc2ccc(Oc3ccnc4cc(-c5cnn[nH]5)ccc34)cc2)CC1 [Compound 65, 1-N′-(4-Fluorophenyl)-1-N-[4-[7-(1H-triazol-5-yl)quinolin-4-yl]oxyphenyl]cyclopropane-1,1-dicarboxamide]",0.1 to 1 µM,0.1 to 1 µM
"O=C(Nc1ccc(F)cc1)C1(C(=O)Nc2ccc(Oc3ccnc4cc(-c5cnn(CC(F)(F)F)c5)ccc34)cc2)CC1 [Compound 16, 1-N′-(4-Fluorophenyl)-1-N-[4-[7-[1-(2,2,2-trifluoroethyl)pyrazol-4-yl]quinolin-4-yl]oxyphenyl]cyclopropane-1,1-dicarboxamide]",≤ 0.01 µM,0.01 to 0.1 µM
"Cn1ncc(-c2ccc3c(Oc4ccc(NC(=O)C5(C(=O)Nc6ccc(F)cc6)CC5)cc4)ccnc3c2)n1 [Compound 86, 1-N′-(4-Fluorophenyl)-1-N-[4-[7-(2-methyltriazol-4-yl)quinolin-4-yl]oxyphenyl]cyclopropane-1,1-dicarboxamide]",≤ 0.01 µM,0.01 to 0.1 µM
"Cn1ccnc1-c1ccc2c(Oc3ccc(NC(=O)C4(C(=O)Nc5ccc(F)cc5)CC4)cc3)ccnc2c1 [Compound 75, 1-N′-(4-Fluorophenyl)-1-N-[4-[7-(1-methylimidazol-2-yl)quinolin-4-yl]oxyphenyl]cyclopropane-1,1-dicarboxamide]",≤ 0.01 µM,0.01 to 0.1 µM
"O=C(Nc1ccc(F)cc1)C1(C(=O)Nc2ccc(Oc3ccnc4cc(-c5cnn(C(F)(F)F)c5)ccc34)cc2)CC1 [Compound 12, 1-N′-(4-Fluorophenyl)-1-N-[4-[7-[1-(trifluoromethyl)pyrazol-4-yl]quinolin-4-yl]oxyphenyl]cyclopropane-1,1-dicarboxamide]",≤ 0.01 µM,0.01 to 0.1 µM
